Legend:
Test in all cases: relative viability (nuclei count vs DMSO), 5 days (fraction); higher = more cells survive
CUDC-101 + Foretinib = compound: C#Cc1cccc(Nc2ncnc3cc(OC)c(OCCCCCCC(=O)NO)cc23)c1 [CUDC-101] + COc1cc2c(Oc3ccc(NC(=O)C4(C(=O)Nc5ccc(F)cc5)CC4)cc3F)ccnc2cc1OCCCN1CCOCC1 [Foretinib] (partner 0.25 µM)
In short: (§1)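 For relative viability, nuclei counts in treated wells were divided by those in vehicle wells. Lung cancer cell lines had been pin-tool dosed in 1536-well plates the day after seeding and cultured for 5 days, then fixed and stained in one step (final 0.05% Triton X-100, 1% formaldehyde, 1 ug/ml Hoechst) and imaged at 4×. Doses were one drug alone or a fixed anchor-drug dose plus five library-drug doses (not always all listed) in √10 steps, and values are duplicate-plate medians.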

CUDC-101 + Alpelisib = compound: C#Cc1cccc(Nc2ncnc3cc(OC)c(OCCCCCCC(=O)NO)cc23)c1 [CUDC-101] + Cc1nc(NC(=O)N2CCC[C@H]2C(N)=O)sc1-c1ccnc(C(C)(C)C(F)(F)F)c1 [Alpelisib] (partner 2 µM)
In short: as §1

CUDC-101 + Decitabine = compound: C#Cc1cccc(Nc2ncnc3cc(OC)c(OCCCCCCC(=O)NO)cc23)c1 [CUDC-101] + Nc1ncn([C@H]2C[C@H](O)[C@@H](CO)O2)c(=O)n1 [Decitabine] (partner 2 µM)
In short: as §1

NVP-TAE684 + Phenformin = compound: COc1cc(N2CCC(N3CCN(C)CC3)CC2)ccc1Nc1ncc(Cl)c(Nc2ccccc2S(=O)(=O)C(C)C)n1 [NVP-TAE684] + N=C(N)NC(=N)NCCc1ccccc1 [Phenformin] (partner 250 µM)
In short: as §1

Row | Cell Line | relative viability (CUDC-101 + Foretinib; first compound 0.01 µM) | relative viability (CUDC-101 + Foretinib; first compound 0.03162 µM) | relative viability (CUDC-101 + Foretinib; first compound 0.1 µM) | relative viability (CUDC-101 + Foretinib; first compound 0.3162 µM) | relative viability (CUDC-101 + Foretinib; first compound 1 µM) | relative viability (CUDC-101 + Alpelisib; first compound 0.01 µM) | relative viability (CUDC-101 + Alpelisib; first compound 0.03162 µM) | relative viability (CUDC-101 + Alpelisib; first compound 0.1 µM) | relative viability (CUDC-101 + Alpelisib; first compound 0.3162 µM) | relative viability (CUDC-101 + Alpelisib; first compound 1 µM) | relative viability (CUDC-101 + Decitabine; first compound 0.01 µM) | relative viability (CUDC-101 + Decitabine; first compound 0.03162 µM) | relative viability (CUDC-101 + Decitabine; first compound 0.1 µM) | relative viability (CUDC-101 + Decitabine; first compound 0.3162 µM) | relative viability (CUDC-101 + Decitabine; first compound 1 µM) | relative viability (NVP-TAE684 + Phenformin; first compound 0.2 µM) | relative viability (NVP-TAE684 + Phenformin; first compound 0.6325 µM) | relative viability (NVP-TAE684 + Phenformin; first compound 2 µM)
1 | EMC-BAC-2 | 1.12 | 0.982 | 0.954 | 1.03 | 0.56 | 0.759 | 0.737 | 0.757 | 0.741 | 0.499 | 1.09 | 0.925 | 0.948 | 0.952 | 0.654 | 0.402 | 0.464 | 0.319
2 | NCI-H441 | 0.976 | 1.23 | 1.05 | 0.978 | 0.937 | 0.842 | 0.847 | 0.879 | 0.589 | 0.572 | 0.303 | 0.305 | 0.262 | 0.242 | 0.236 | 0.574 | 0.755 | 0.258
3 | NCI-H1944 | 0.931 | 0.691 | 0.861 | 0.612 | 0.397 | 0.819 | 0.682 | 0.799 | 0.756 | 0.514 | 0.409 | 0.434 | 0.431 | 0.428 | 0.363 | 0.211 | 0.202 | 0.197
4 | NCI-H727 | 0.975 | 0.85 | 0.685 | 0.778 | 0.424 | 0.59 | 0.478 | 0.698 | 0.595 | 0.295 | 1.19 | 0.906 | 0.944 | 0.989 | 0.695 | 0.512 | 0.641 | 0.341
5 | NCI-H1993 | 0.862 | 0.791 | 0.839 | 0.734 | 0.612 | 0.742 | 0.751 | 0.766 | 0.671 | 0.639 | 0.62 | 0.548 | 0.602 | 0.586 | 0.488 | 0.508 | 0.467 | 0.519
6 | NCI-H3122 | 1.02 | 0.973 | 0.908 | 0.943 | 0.769 | 0.666 | 0.83 | 0.808 | 0.875 | 0.969 | 0.402 | 0.4 | 0.51 | 0.461 | 0.485 | 0.156 | 0.131 | 0.125
7 | NCI-H1651 | 0.821 | 0.741 | 1.07 | 0.82 | 0.609 | 1.03 | 0.772 | 1 | 0.93 | 0.817 | 0.671 | 0.645 | 0.643 | 0.594 | 0.515 | 0.278 | 0.336 | 0.179
8 | NCI-H1355 | 1.08 | 1.01 | 1.03 | 1.07 | 0.821 | 0.873 | 0.738 | 1.02 | 0.807 | 0.566 | 0.359 | 0.313 | 0.358 | 0.355 | 0.313 | 0.431 | 0.391 | 0.327
9 | NCI-H596 | 0.862 | 0.902 | 0.787 | 0.752 | 0.729 | 0.463 | 0.395 | 0.481 | 0.465 | 0.512 | 0.902 | 1.03 | 0.988 | 1.18 | 1.02 | 0.709 | 0.656 | 0.579
10 | NCI-H23 | 1.06 | 1 | 1.04 | 1.06 | 0.949 | 0.775 | 0.592 | 0.727 | 0.652 | 0.718 | 0.317 | 0.321 | 0.346 | 0.307 | 0.543 | 0.987 | 0.757 | 0.518
11 | HCC-366 | 0.939 | 0.93 | 0.95 | 0.847 | 0.882 | 0.555 | 0.197 | 0.437 | 0.547 | 0.337 | 0.335 | 0.33 | 0.339 | 0.383 | 0.354 | 0.66 | 0.629 | 0.588
12 | NCI-H2126 | 1.25 | 0.971 | 1.08 | 1.26 | 1.01 | 0.771 | 0.706 | 0.7 | 0.74 | 0.531 | 0.564 | 0.572 | 0.597 | 0.567 | 0.519 | 0.53 | 0.468 | 0.361
13 | LU99A | 0.931 | 0.881 | 0.684 | 0.798 | 0.388 | 0.584 | 0.603 | 0.518 | 0.433 | 0.263 | 0.824 | 0.823 | 0.9 | 0.831 | 0.657 | 0.912 | 0.886 | 0.659
14 | NCI-H650 | 1.07 | 1.01 | 1.03 | 1.15 | 0.801 | 1.19 | 1.06 | 1.29 | 1.17 | 0.885 | 0.359 | 0.366 | 0.323 | 0.286 | 0.264 | 0.462 | 0.371 | 0.325
15 | LXF-289 | 0.972 | 0.932 | 0.937 | 0.877 | 0.497 | 0.991 | 1.08 | 0.994 | 1.07 | 0.815 | 0.396 | 0.418 | 0.358 | 0.367 | 0.301 | 0.555 | 0.52 | 0.443
16 | SK-MES-1 | 0.937 | 0.843 | 0.981 | 1.01 | 0.679 | 0.798 | 0.877 | 0.879 | 0.874 | 0.592 | 0.349 | 0.466 | 0.332 | 0.392 | 0.261 | 0.642 | 0.686 | 0.453
17 | SW 1573 | 1.02 | 1.03 | 1.08 | 0.862 | 0.611 | 0.861 | 0.797 | 0.852 | 1.08 | 0.739 | 0.552 | 0.514 | 0.489 | 0.593 | 0.264 | 0.307 | 0.249 | 0.128
18 | NCI-H1975 | 0.856 | 1.03 | 0.99 | 1.04 | 0.808 | 0.714 | 0.634 | 0.686 | 0.673 | 0.538 | 0.398 | 0.451 | 0.389 | 0.391 | 0.374 | 0.422 | 0.367 | 0.24
